How the values were obtained:
[1] = pH value of compound, salts and lyophilized preparations; type: physicochemical; conditions: compound or its salts
Procedure: The solution was stirred for 10 min, and then stood for adsorption for 20 min, followed by filtering with a 0.22 μm microfiltration membrane, and then was placed into 2 ml vials. Each vial was filled with 1 ml of the solution, which was then lyophilized to obtain the product at the specification of 20 mg/vial. The product was a white loose block, with a pH value of 4.10.
(§1) 100) ml of water for injection was added at a low temperature (2-8° C.) to dissolve the compound, and 2.0 g of activated carbon for medicinal use was added. The solution was stirred for 10 min, and then stood for adsorption for 20 min, followed by filtering with a 0.22 μm microfiltration membrane, and then was placed into 2 ml vials. Each vial was filled with 1 ml of the solution, which was then lyophilized to obtain the product at the specification of 100 mg/vial.
as §1, with “100” for “100)”, “sodium dihydrogen phosphate-disodium hydrogen phosphate buffer (pH of 6.0)” for “water for injection”, “0.5” for “2.0”, “200” for “100”

[2] = hygroscopicity experiments of various salts; type: physicochemical; conditions: 25° C. ± 1° C.
[3] = known platinum drugs; cited from earlier work
[4] = relative humidity 44% ± 2%, 1 h
[5] = relative humidity 44% ± 2%, 24 h
[6] = relative humidity 69% ± 2%, 1 h
[7] = relative humidity 69% ± 2%, 24 h

**Q.** Which pH value [1] does the source give for `CCN(CC)CCCCC1C(=O)[O][Pt][O]C1=O.N[C@@H]1CCCC[C@H]1N` [Example 1, (4-diethylamino)butylmalonato-(1R,2R)-(−)-1,2-cyclohexanediamine platinum(II)] here?
**A.** greater than 10

**Q.** For `CCN(CC)CCCCC1C(=O)[O][Pt]2([NH][C@@H]3CCCC[C@H]3[NH]2)[O]C1=O.O=C(O)/C=C/C(=O)O` (stereo partly shown) [Fumarate salt], which Hygroscopicity [2, 4] is on record?
**A.** 5.87%

**Q.** What about the Status [2, 4] of the same compound?
**A.** Viscous

**Q.** What about the Hygroscopicity [2, 5] of the same compound?
**A.** 10.83%

**Q.** And the Status [2, 5]?
**A.** Semi-

**Q.** And the Hygroscopicity [2, 6]?
**A.** 6.83%

**Q.** And the Status [2, 6]?
**A.** Viscous

**Q.** What about the Hygroscopicity [2, 7] of the same compound?
**A.** 13.90%

**Q.** What about the Status [2, 7] of the same compound?
**A.** Semi-

**Q.** What does the source list for `CCN(CC)CCCCC1C(=O)[O][Pt]2([NH][C@@H]3CCCC[C@H]3[NH]2)[O]C1=O.O=C(O)[C@H](O)[C@@H](O)C(=O)O` (stereo partly drawn) [L(+) tartrate salt, 2-(4-diethylamino)butylmalonato-(1R,2R)-(−)-1,2-cyclohexanediamine platinum(II) L-(+) tartrate]?
**A.** Hygroscopicity [2, 4]: 4.88%; Status [2, 4]: Viscous; Hygroscopicity [2, 5]: 9.76%; Status [2, 5]: Light gray; Hygroscopicity [2, 6]: 5.78%; Status [2, 6]: Viscous; Hygroscopicity [2, 7]: 12.79%; Status [2, 7]: Light

**Q.** Which Hygroscopicity [2, 4] does the source give for `CCN(CC)CCCCC1C(=O)[O][Pt]2([NH][C@@H]3CCCC[C@H]3[NH]2)[O]C1=O.CS(=O)(=O)O` (stereo partly drawn) [Mesylate salt, 2-(4-diethylamino)butylmalonato-(1R,2R)-(−)-1,2-cyclohexanediamine platinum(II) mesylate] here?
**A.** 4.98%

**Q.** And the Status [2, 4]?
**A.** Viscous

**Q.** And the Hygroscopicity [2, 5]?
**A.** 9.89%

**Q.** What about the Status [2, 5] of the same compound?
**A.** Light gray

**Q.** What about the Hygroscopicity [2, 6] of the same compound?
**A.** 6.37%

**Q.** What about the Status [2, 6] of the same compound?
**A.** Viscous

**Q.** What about the Hygroscopicity [2, 7] of the same compound?
**A.** 13.89%

**Q.** What about the Status [2, 7] of the same compound?
**A.** Light gray

**Q.** For `CCN(CC)CCCCC1C(=O)[O][Pt]2([NH][C@@H]3CCCC[C@H]3[NH]2)[O]C1=O.Cc1ccc(S(=O)(=O)O)cc1` (stereo partly drawn) [Tosylate salt, 2-(4-diethylamino)butylmalonato-(1R,2R)-(−)-1,2-cyclohexanediamine platinum(II) tosylate], which Hygroscopicity [2, 4] is on record?
**A.** 4.56%

**Q.** And the Status [2, 4]?
**A.** Viscous

**Q.** What about the Hygroscopicity [2, 5] of the same compound?
**A.** 8.78%

**Q.** And the Status [2, 5]?
**A.** Light

**Q.** What about the Hygroscopicity [2, 6] of the same compound?
**A.** 5.30%

**Q.** What about the Status [2, 6] of the same compound?
**A.** Viscous

**Q.** And the Hygroscopicity [2, 7]?
**A.** 9.86%

**Q.** And the Status [2, 7]?
**A.** Light

**Q.** For `N.N.O=C([O-])C1(C(=O)[O-])CCC1.[Pt+2]` [carboplatin], which solubility [3] is on record?
**A.** 17.8 mg/mL
